We go through 20 compounds from PubChem BioAssay (NCI).

Test systems include SF-539 CNS; 786-0 renal; NCI-H522 lung; SR leukemia; MOLT-4 leukemia; M19-MEL melanoma; KM20L2 colon; RXF 393 renal; BT-549 breast; NCI/ADR-RES ovarian.
Common to all, as to test: growth of human tumour cells (NCI), 48 h

Where “and” joins values, the source holds several entries; their conditions need not be identical. Identical values can stand only once.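 Exposure lasted 48 hours, with cells grown in 96-well plates and compounds tested at five concentrations. GI50: concentration for 50% inhibition of growth. At the TGI there is no net growth.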

As to `C1=Cc2nc1c(-c1ccccc1)c1ccc([nH]1)c(-c1ccccc1)c1nc(c(-c3ccccc3)c3ccc([nH]3)c2-c2ccccc2)C=C1`, the TGI in the test on SF-539 CNS, in the test with 786-0 renal, in the test with NCI-H522 lung, with SR leukemia, in the test on MOLT-4 leukemia and in the test with M19-MEL melanoma was above 100 µM throughout. The compound further gave a TGI in the test with KM20L2 colon above 100 µM.

Turning to `COc1ccccc1-c1cc(=O)c2cc(C)c(C)c(C(=O)O)c2o1`, the TGI in the test on SF-539 CNS, with 786-0 renal, in the test with NCI-H522 lung, with MOLT-4 leukemia, with M19-MEL melanoma and in the test with KM20L2 colon was above 100 µM throughout.

As for `O=C1c2ccccc2C(=O)C12CCc1ccccc12`, the TGI in the test with 786-0 renal, in the test on RXF 393 renal, with MOLT-4 leukemia, in the test on M19-MEL melanoma and in the test with KM20L2 colon was above 100 µM each time.

`COc1cc(C(=O)N[C@H]2CCc3cc(OC)c(OC)c(OC)c3-c3ccc(SC)c(=O)cc32)cc(OC)c1OC`: the TGI was 0.0145 µM with SF-539 CNS; 25 µM and 16.3 µM in the test on 786-0 renal; 0.00974 µM in the test with NCI-H522 lung; 25 µM and > 100 µM with SR leukemia; 25 µM and > 100 µM with MOLT-4 leukemia; 25 µM and > 100 µM in the test on M19-MEL melanoma. Moreover, the GI50 with MOLT-4 leukemia was 13.3 nM; in the test with M19-MEL melanoma, 15.6 nM.

Take `O=C1CCC2(c3ccccc3)Nc3ccccc3N12` (configuration not stated): the TGI in the test with SF-539 CNS, in the test with 786-0 renal, in the test with NCI-H522 lung, with RXF 393 renal, in the test on MOLT-4 leukemia and in the test on M19-MEL melanoma was above 100 µM in each case. Besides, the TGI in the test with KM20L2 colon is above 100 µM.

As to `CN(C)c1ccc(/C=C(\NC(=O)c2ccccc2)c2nc3ccc4c(c3[nH]2)C(=O)c2ccccc2C4=O)cc1`, the TGI is above 100 µM with SF-539 CNS; above 100 µM with 786-0 renal; above 100 µM with NCI-H522 lung; 93.8 µM in the test on RXF 393 renal; 31.3 µM in the test on MOLT-4 leukemia; above 100 µM in the test on M19-MEL melanoma. In addition, in the test with KM20L2 colon, the TGI is above 100 µM.

As for `C[N+](C)(C)CC1CCCCC1=O` (configuration not stated), the TGI in the test on SF-539 CNS was above 100 µM; in the test on 786-0 renal it was above 100 µM; in the test on NCI-H522 lung it was 36.2 µM; with RXF 393 renal, 33.8 µM; in the test with MOLT-4 leukemia, 35.3 µM; with M19-MEL melanoma, 35.2 µM. This compound gave a TGI with KM20L2 colon of 4.65 µM.

Turning to `COc1ccc(O)c(C(=O)CCC(=O)O)c1`, the TGI in the test on SF-539 CNS, in the test on 786-0 renal, in the test on NCI-H522 lung, in the test on RXF 393 renal, in the test with SR leukemia and with MOLT-4 leukemia was above 100 µM in each case. In the test on M19-MEL melanoma, this compound gave a TGI above 100 µM.

As to `CN/N=C(/c1nc2ccc([N+](=O)[O-])cc2[nH]c1=O)C(O)c1ccc(C(O)/C(=N\NC)c2nc3ccc([N+](=O)[O-])cc3[nH]c2=O)cc1` (configuration not stated), the TGI in the test on SF-539 CNS, in the test on 786-0 renal, in the test with RXF 393 renal, in the test with MOLT-4 leukemia, with M19-MEL melanoma and in the test with KM20L2 colon was above 100 µM in each case.

Turning to `C#CCN(N=O)C(=O)ON1C(=O)CCC1=O`, the TGI in the test with SF-539 CNS, with 786-0 renal, in the test with NCI-H522 lung, in the test with RXF 393 renal, with MOLT-4 leukemia and in the test with M19-MEL melanoma was above 100 µM each time. Also, the TGI in the test with KM20L2 colon was above 100 µM.

Take `COc1cc([C@@H]2c3cc4c(cc3[C@H](OC(C)=O)[C@H]3COC(=O)[C@@H]23)OCO4)cc(OC)c1OC`: the GI50 with SF-539 CNS is 216 nM; with 786-0 renal, 0.379 µM; in the test with BT-549 breast, 419 nM; with NCI-H522 lung, 150 nM; in the test with RXF 393 renal it was 235 nM; with SR leukemia it was 153 nM. The GI50 is 438 nM in the test on MOLT-4 leukemia and 336 nM in the test with NCI/ADR-RES ovarian. In addition, the TGI with SF-539 CNS was 0.526 µM; in the test on 786-0 renal, above 100 µM; with BT-549 breast, above 68.5 µM; with NCI-H522 lung, 0.448 µM; with RXF 393 renal it was 0.591 µM; with SR leukemia it was above 100 µM. Also, in the test with MOLT-4 leukemia, the TGI is above 100 µM.

On to `ClCc1cccc(Cn2cnc3c(Cl)nc(Cl)nc32)c1`, for which the GI50 in the test on SF-539 CNS was 2200 nM; in the test with 786-0 renal, 12.4 µM; in the test with BT-549 breast, 1690 nM; in the test on NCI-H522 lung, 2720 nM; in the test with RXF 393 renal it was 760 nM; with SR leukemia, 2490 nM. Moreover, the figures for the GI50 in the test on MOLT-4 leukemia and with NCI/ADR-RES ovarian were 3350 nM and 2420 nM, respectively. Moreover, the TGI in the test on SF-539 CNS is 14.1 µM; in the test with 786-0 renal, 26.8 µM; in the test on BT-549 breast it was 3.23 µM; in the test with NCI-H522 lung it was 5.32 µM; in the test with RXF 393 renal it was 2.1 µM; with SR leukemia, above 100 µM. The TGI was above 100 µM in the test on MOLT-4 leukemia and 5.23 µM in the test on NCI/ADR-RES ovarian.

For the compound `CC(=O)c1ccc2c(c1)N(CCCN1CCN(CCO)CC1)c1ccccc1S2`, the GI50 in the test with SF-539 CNS is 1730 nM; with 786-0 renal, 1.77 µM; with BT-549 breast it was 3380 nM; in the test with NCI-H522 lung, 1670 nM; in the test with RXF 393 renal, 2090 nM; with SR leukemia, 2680 nM. Moreover, the GI50 was 2990 nM in the test with MOLT-4 leukemia and 3050 nM with NCI/ADR-RES ovarian. The TGI with SF-539 CNS came to 3.55 µM; in the test with 786-0 renal, 3.64 µM; with BT-549 breast, 11.9 µM; in the test with NCI-H522 lung it was 3.64 µM; with RXF 393 renal it was 5.95 µM; in the test with SR leukemia, 6.92 µM. The TGI in the test with MOLT-4 leukemia stood at 8.86 µM; in the test on NCI/ADR-RES ovarian it was 12.9 µM.

Take `OC1=CN=COc2ccccc21`: the TGI in the test on SF-539 CNS, in the test with 786-0 renal, in the test on RXF 393 renal, in the test with MOLT-4 leukemia, with M19-MEL melanoma and in the test on KM20L2 colon was above 100 µM each time.

On to `COc1cccc(-c2cc(=O)c3cc4c(cc3[nH]2)OCO4)c1`, for which the TGI in the test with SF-539 CNS was 0.317 µM; in the test with 786-0 renal, 10.2 µM; with RXF 393 renal it was 0.474 µM; in the test with SR leukemia, above 100 µM; in the test on MOLT-4 leukemia it was above 100 µM; in the test with M19-MEL melanoma it was above 100 µM.

`CC1=Nc2ccccc2SC(c2c(Cl)cccc2Cl)C1` (configuration not stated): the TGI is 2.72 µM with SF-539 CNS; 1.49 µM in the test with 786-0 renal; 2.23 µM in the test on NCI-H522 lung; 2.69 µM in the test with RXF 393 renal; 12.4 µM with MOLT-4 leukemia; 2.44 µM in the test on M19-MEL melanoma. Moreover, the TGI in the test with KM20L2 colon was found to be 2.98 µM.

Regarding `c1ccc(-c2nc3n(c2-c2ccc4c(c2)OCO4)CCC3)nc1`, the GI50 is 6380 nM with SF-539 CNS; 3.89 µM in the test on 786-0 renal; 10000 nM in the test with BT-549 breast; 8140 nM in the test on NCI-H522 lung; 2450 nM in the test with RXF 393 renal; 9490 nM in the test on SR leukemia. Besides, the GI50 in the test on MOLT-4 leukemia is 6630 nM; with NCI/ADR-RES ovarian it was 573 nM. Further, the TGI in the test with SF-539 CNS is 21.6 µM; in the test with 786-0 renal, 24.9 µM; in the test on BT-549 breast, above 25 µM; in the test with NCI-H522 lung it was above 25 µM; in the test with RXF 393 renal, above 17.5 µM; with SR leukemia, above 25 µM. Besides, the values for the TGI in the test on MOLT-4 leukemia and in the test with NCI/ADR-RES ovarian were above 21.4 µM and 9.59 µM, respectively.

For `N=c1ccc2nc3ccc(N)cc3sc-2c1`, the GI50 was 3210 nM with SF-539 CNS; 9.99 µM in the test with 786-0 renal; 10600 nM in the test with BT-549 breast; 2240 nM in the test on NCI-H522 lung; 12200 nM in the test with RXF 393 renal; 4650 nM in the test with SR leukemia. For the same compound, the GI50 in the test on MOLT-4 leukemia is 4590 nM; with NCI/ADR-RES ovarian it was 2530 nM. Further, the TGI is 8.62 µM in the test on SF-539 CNS; 29.7 µM in the test with 786-0 renal; 60.9 µM in the test on BT-549 breast; 7 µM in the test on NCI-H522 lung; 28.2 µM in the test with RXF 393 renal; above 100 µM in the test with SR leukemia. In addition, the TGI was above 100 µM in the test with MOLT-4 leukemia and 10.7 µM in the test on NCI/ADR-RES ovarian.

As for `C=C1C(=O)O[C@H]2[C@H]1CC/C(COC(=O)N[C@H]1C[C@H](O[C@H]3C[C@](O)(C(=O)CO)Cc4c(O)c5c(c(O)c43)C(=O)c3c(OC)cccc3C5=O)O[C@@H](C)[C@H]1O)=C\CC[C@@]1(C)O[C@@H]21`, the GI50 in the test with SF-539 CNS was 2370 nM; in the test with 786-0 renal it was 5.7 µM; in the test on BT-549 breast, 2400 nM; in the test with NCI-H522 lung, 772 nM; in the test with RXF 393 renal, 1220 nM; in the test on SR leukemia, 1020 nM. Besides, the GI50 in the test on MOLT-4 leukemia is 1030 nM; with NCI/ADR-RES ovarian, above 50000 nM. Also, the TGI stood at 8.43 µM in the test on SF-539 CNS; 16.5 µM in the test on 786-0 renal; 9.24 µM in the test on BT-549 breast; 1.68 µM in the test on NCI-H522 lung; 3.85 µM in the test with RXF 393 renal; 7.12 µM in the test on SR leukemia. Also, the results for the TGI in the test on MOLT-4 leukemia and in the test on NCI/ADR-RES ovarian were 2.83 µM and above 50 µM, respectively.

As for `Cc1ccc(S(=O)(=O)c2nc(-c3ccccc3)oc2S(C)(=O)=O)cc1`, the GI50 in the test on SF-539 CNS was 1560 nM; in the test on 786-0 renal, 1.66 µM; in the test with BT-549 breast it was 1850 nM; with NCI-H522 lung it was 1520 nM; in the test on RXF 393 renal it was 1690 nM; in the test on SR leukemia, 2000 nM. The GI50 with MOLT-4 leukemia is 2270 nM; with NCI/ADR-RES ovarian, 7430 nM. Further, the TGI was 3.02 µM in the test on SF-539 CNS; 3.19 µM in the test with 786-0 renal; 3.72 µM with BT-549 breast; 3.3 µM with NCI-H522 lung; 3.13 µM with RXF 393 renal; 7.69 µM in the test on SR leukemia. In addition, the TGI with MOLT-4 leukemia is 5.87 µM; with NCI/ADR-RES ovarian it was 45 µM.
